Measured values taken from patent US20240368560A1, “METHODS OF PRODUCING THREE-DIMENSIONAL CELLULAR TISSUES” (TOPPAN HOLDINGS INC., priority 2022, published 2024).

Tests used:
Assay type in all cases: cell-based, human
[1] = tested on: three-dimensional cellular tissue (NHDF, HUVEC, HCT15/β2m cells); test: Formation of collagen, PSR staining (Experimental Example 1); details: ascorbic acid 0.1 mM, alone or with TGF-β 1 ng/mL
Experimental: The medium inside and outside the above cell culture insert was removed, and 2 mL of general-purpose medium was added, using magnesium ascorbate phosphate (product number “013-12061”, FUJIFILM Wako Pure Chemical Corporation) and TGF-β (product number “209-16544”, FUJIFILM Wako Pure Chemical Corporation), with the ascorbic acid concentration being 0 mM, […], and the cells were cultured in a CO2 incubator (37° C., 5% CO2) for 3 days. Then, the medium inside and outside the culture insert was removed, and 2.3 mL of general-purpose medium was added with the ascorbic acid concentration being 0 mM, […], and the cells were cultured in a CO2 incubator (37° C., 5% CO2) for 3 days. On day 4 and day 7 of the culture, the obtained three-dimensional cellular tissue was washed twice with PBS, and […] of 10% formalin buffer solution (product number “062-01661”, FUJIFILM Wako Pure Chemical Corporation) was added to the cell culture insert, which was then allowed to stand for 15 minutes or more and washed three times with PBS to fix the three-dimensional cellular tissue. Then, the three-dimensional cellular tissue was removed from the cell culture insert, embedded in paraffin, and cut along a line passing through the center of gravity in a direction perpendicular to the top of the three-dimensional cellular tissue (top of the cell culture insert) to prepare a […] thin slice. […]

[2] = tested on: three-dimensional cellular tissue (NHDF, HUVEC, HCT15/β2m cells); test: Formation of collagen, PSR staining, timing of ascorbic acid addition (Experimental Example 2); details: day 7 of culture
Experimental: Preparation of stromal cells, seeding of cancer cells and lamination of stromal cells were performed in the same manner as in Experimental Example 1 except that 2.0×10^6 cells of human neonatal dermal fibroblasts NHDF were seeded, as NHDF, in a square dish (product number “166508”, Nunc) containing 90 mL of general-purpose medium or general-purpose medium containing 0.1 mM ascorbic acid, and cultured in a CO2 incubator (37° C., 5% CO2) for 24 hours.
Then, the medium inside and outside the cell culture insert was removed, and 2.3 mL of general-purpose medium or general-purpose medium containing 0.1 mM ascorbic acid was added, and the cells were cultured in a CO2 incubator (37° C., 5% CO2) for 3 days.
Subsequently, the medium inside and outside the culture insert was removed, and 2.3 mL of general-purpose medium or general-purpose medium containing 0.1 mM ascorbic acid was added, and the cells were cultured in a CO2 incubator (37° C., 5% CO2) for 3 days.
On day 7 of the culture, the three-dimensional cellular tissue was washed twice with PBS, and 300 μL of 10% formalin buffer solution (product number “062-01661”, FUJIFILM Wako Pure Chemical Corporation) was added to the cell culture insert, which was then allowed to stand for 15 minutes or more and washed three times with PBS to fix the three-dimensional cellular tissue. […]

[3] = tested on: three-dimensional cellular tissue (NHDF, HUVEC, HCT15/β2m cells); test: Bright-field observation of three-dimensional cellular tissue formation (Experimental Example 1); details: day 7 of culture; ascorbic acid 0, 0.05 or 0.1 mM; TGF-β 0, 0.1, 1, 5 or 10 ng/mL
Experimental: 1.0×10^6 cells of human neonatal dermal fibroblasts NHDF (product number “CC-2509”, Lonza) and 1.5×10^4 cells of human umbilical vein endothelial cells HUVEC (product number “C2517A”, Lonza) were suspended in a 50 mM tris-HCl buffer solution (pH 7.4) containing 0.1 mg/mL heparin (product number “H3149-100KU”, Sigma) and 0.1 mg/mL collagen (product number “ASC-1-100-100”, Sigma).
Then, the cell suspension was centrifuged at room temperature at 1,000×g (gravitational acceleration) for 2 minutes, and, after removing the supernatant, resuspended in 300 μL of general-purpose medium. Then, the obtained cell suspension was seeded inside a 24-well cell culture insert (product number “3470”, Corning Incorporated) coated with 0.1 mg/mL fibronectin in advance, with 1 mL of general-purpose medium added to the outside.
Then, the cell culture insert was centrifuged at room temperature at 400×g for 2 minutes, and then allowed to stand in a CO2 incubator (37° C., 5% CO2) for 2 hours. Then, 1 mL of general-purpose medium was added to the outside the cell culture insert, and the cells were cultured in a CO2 incubator (37° C., 5% CO2) for 24 hours (the time at which this culture was started is referred to as the culture start time).
The medium outside the cell culture insert was removed, and 1 mL of general-purpose medium was added. […]

Row | Compound | formation of collagen (PSR staining, PSR ratio) [1] | formation of collagen (PSR staining) ([2]; 0.1 mM ascorbic acid added after formation of the three-dimensional cellular tissue) | formation of collagen (PSR staining) ([2]; 0.1 mM ascorbic acid added to NHDF in advance (24 hours before tissue formation)) | formation of three-dimensional cellular tissue (microscopic observation) [3]
1 | O=C1O[C@H]([C@@H](O)CO)C(O)=C1O [ascorbic acid] | fiber-like collagen was formed | collagen was found to be formed | no change in formation of collagen | a three-dimensional cellular tissue was formed
2 | TGF-β |  |  |  | the cellular tissue shrunk and became detached from the cell culture insert, and no three-dimensional cellular tissue was formed
